Assay results reported in ChEMBL document CHEMBL3046832, “Synthesis of some sulfonamides, disubstituted sulfonylureas or thioureas and some structurally related variants. A class of promising antitumor agents” (2007).

What was measured:
Type in all cases: functional
[1] = tested on: MDA-MB-435; assay: Cytotoxicity against Homo sapiens (human) MDA-MB-435 cells after 48 hr by SRB assay; conditions: MDA-MB-435, 48 h
[2] = tested on: M14; assay: Cytotoxicity against Homo sapiens (human) M14 cells after 48 hr by SRB assay; conditions: M14, 48 h
[3] = tested on: LOX IMVI; assay: Cytotoxicity against Homo sapiens (human) LOXIMVI cells after 48 hr by SRB assay
[4] = tested on: MCF7; assay: Cytotoxicity against Homo sapiens (human) MCF7 cells after 48 hr by SRB assay; conditions: MCF7, 48 h
[5] = tested on: MDA-MB-231; assay: Cytotoxicity against Homo sapiens (human) MDA-MB-231 cells after 48 hr by SRB assay; conditions: MDA-MB-231, 48 h
[6] = tested on: UO-31; assay: Cytotoxicity against Homo sapiens (human) UO31 cells after 48 hr by SRB assay; conditions: UO-31, 48 h
[7] = tested on: PC-3; assay: Cytotoxicity against Homo sapiens (human) PC3 cells after 48 hr by SRB assay; conditions: PC-3, 48 h
[8] = tested on: RXF 393; assay: Cytotoxicity against Homo sapiens (human) RXF393 cells after 48 hr by SRB assay; conditions: RXF 393, 48 h
[9] = tested on: 786-0; assay: Cytotoxicity against Homo sapiens (human) 786-0 cells after 48 hr by SRB assay; conditions: 786-0, 48 h
[10] = tested on: SK-OV-3; assay: Cytotoxicity against Homo sapiens (human) SKOV3 cells after 48 hr by SRB assay; conditions: SK-OV-3, 48 h
[11] = tested on: OVCAR-5; assay: Cytotoxicity against Homo sapiens (human) OVCAR5 cells after 48 hr by SRB assay; conditions: OVCAR-5, 48 h
[12] = tested on: IGROV-1; assay: Cytotoxicity against Homo sapiens (human) IGROV1 cells after 48 hr by SRB assay; conditions: IGROV-1, 48 h
[13] = tested on: OVCAR-3; assay: Cytotoxicity against Homo sapiens (human) OVCAR3 cells after 48 hr by SRB assay; conditions: OVCAR-3, 48 h
[14] = tested on: UACC-62; assay: Cytotoxicity against Homo sapiens (human) UACC62 cells after 48 hr by SRB assay; conditions: UACC-62, 48 h
[15] = tested on: UACC-257; assay: Cytotoxicity against Homo sapiens (human) UACC257 cells after 48 hr by SRB assay; conditions: UACC-257, 48 h
[16] = tested on: SK-MEL-5; assay: Cytotoxicity against Homo sapiens (human) SK-MEL-5 cells after 48 hr by SRB assay; conditions: SK-MEL-5, 48 h
[17] = tested on: SK-MEL-2; assay: Cytotoxicity against Homo sapiens (human) SK-MEL-2 cells after 48 hr by SRB assay; conditions: SK-MEL-2, 48 h
[18] = tested on: SK-MEL-28; assay: Cytotoxicity against Homo sapiens (human) SK-MEL-28 cells after 48 hr by SRB assay; conditions: SK-MEL-28, 48 h
[19] = Cytotoxicity against Homo sapiens (human) breast cancer cells after 48 hr by SRB assay; conditions: Cancer cell lines
[20] = Cytotoxicity against Homo sapiens (human) prostate cancer cells after 48 hr by SRB assay; conditions: Cancer cell lines
[21] = Cytotoxicity against Homo sapiens (human) renal cancer cells after 48 hr by SRB assay; conditions: Cancer cell lines
[22] = Cytotoxicity against Homo sapiens (human) ovarian cancer cells after 48 hr by SRB assay; conditions: Cancer cell lines
[23] = Cytotoxicity against Homo sapiens (human) melanoma cells after 48 hr by SRB assay; conditions: Melanoma cell
[24] = Cytotoxicity against Homo sapiens (human) CNS cancer cells after 48 hr by SRB assay; conditions: Cancer cell lines
[25] = Cytotoxicity against Homo sapiens (human) colon cancer cells after 48 hr by SRB assay; conditions: Cancer cell lines
[26] = Cytotoxicity against Homo sapiens (human) non-small cell lung cancer cells after 48 hr by SRB assay; conditions: Cancer cell lines
[27] = Cytotoxicity against Homo sapiens (human) leukemia cells after 48 hr by SRB assay; conditions: Leukemia cell
[28] = tested on: SF-268; assay: Cytotoxicity against Homo sapiens (human) SF268 cells assessed as cellular growth after 48 hr by Alamar blue assay; set-up: concentration or dose not given beside the values
[29] = tested on: BT-549; assay: Cytotoxicity against Homo sapiens (human) BT549 cells after 48 hr by SRB assay; conditions: BT-549, 48 h
[30] = tested on: SNB-19; assay: Cytotoxicity against Homo sapiens (human) SNB19 cells after 48 hr by SRB assay; conditions: SNB-19, 48 h
[31] = tested on: SF-539; assay: Cytotoxicity against Homo sapiens (human) SF539 cells after 48 hr by SRB assay; conditions: SF-539, 48 h
[32] = tested on: SF-295; assay: Cytotoxicity against Homo sapiens (human) SF295 cells after 48 hr by SRB assay; conditions: SF-295, 48 h
[33] = tested on: SW-620; assay: Cytotoxicity against Homo sapiens (human) SW620 cells after 48 hr by SRB assay; conditions: SW-620, 48 h
[34] = tested on: SF-268; assay: Cytotoxicity against Homo sapiens (human) SF268 cells after 48 hr by SRB assay; conditions: SF-268, 48 h
[35] = tested on: KM12; assay: Cytotoxicity against Homo sapiens (human) KM12 cells after 48 hr by SRB assay; conditions: KM12, 48 h
[36] = tested on: HCT-15; assay: Cytotoxicity against Homo sapiens (human) HCT15 cells after 48 hr by SRB assay; conditions: HCT-15, 48 h
[37] = tested on: HCC 2998; assay: Cytotoxicity against Homo sapiens (human) HCC2998 cells after 48 hr by SRB assay; conditions: HCC 2998, 48 h
[38] = tested on: NCI-H522; assay: Cytotoxicity against Homo sapiens (human) NCI-H522 cells after 48 hr by SRB assay; conditions: NCI-H522, 48 h
[39] = tested on: COLO 205; assay: Cytotoxicity against Homo sapiens (human) COLO205 cells after 48 hr by SRB assay; conditions: COLO 205, 48 h
[40] = Cytotoxicity against Homo sapiens (human) NCI-H322 cells after 48 hr by SRB assay; conditions: NCI-H322, 48 h
[41] = tested on: NCI-H460; assay: Cytotoxicity against Homo sapiens (human) NCI-H460 cells after 48 hr by SRB assay; conditions: NCI-H460, 48 h
[42] = tested on: HOP-92; assay: Cytotoxicity against Homo sapiens (human) HOP92 cells after 48 hr by SRB assay; conditions: HOP-92, 48 h
[43] = tested on: EKVX; assay: Cytotoxicity against Homo sapiens (human) EKVX cells after 48 hr by SRB assay
[44] = tested on: HOP-62; assay: Cytotoxicity against Homo sapiens (human) HOP62 cells after 48 hr by SRB assay; conditions: HOP-62, 48 h
[45] = tested on: CCRF-CEM; assay: Cytotoxicity against Homo sapiens (human) CCRF-CEM cells after 48 hr by SRB assay
[46] = tested on: MCF7; assay: Cytotoxicity against Homo sapiens (human) MCF7 cells assessed as cellular growth after 48 hr by Alamar blue assay; set-up: concentration or dose not given beside the values

Compound: O=C(NC1CCCCC1)NS(=O)(=O)c1ccc(-n2nc3c(c2-c2cccs2)Cc2ccccc2-3)cc1
- GI50 [1]: 32.5 µM
- GI50 [2]: 64.1 µM
- GI50 [3]: 5.66 µM
- GI50 [4]: > 100 µM
- GI50 [5]: 27.9 µM
- GI50 [6]: 15.4 µM
- GI50 [7]: 14.5 µM
- GI50 [8]: 29.2 µM
- GI50 [9]: 32.3 µM
- GI50 [10]: 44.5 µM
- GI50 [11]: 26.6 µM
- GI50 [12]: 4.12 µM
- GI50 [13]: 24.5 µM
- GI50 [14]: 19.3 µM
- GI50 [15]: 24.8 µM
- GI50 [16]: 18.7 µM
- GI50 [17]: 23.6 µM
- GI50 [18]: 34.2 µM
- GI50 [19]: 41.7 µM
- TGI [19]: 94.2 µM
- GI50 [20]: 23.2 µM
- TGI [20]: 34.7 µM
- GI50 [21]: 21.3 µM
- TGI [21]: 40.1 µM
- GI50 [22]: 25.3 µM
- TGI [22]: 80.3 µM
- GI50 [23]: 27.2 µM
- TGI [23]: 53.4 µM
- GI50 [24]: 49.5 µM
- TGI [24]: 93.6 µM
- GI50 [25]: 24.2 µM
- TGI [25]: 73.3 µM
- GI50 [26]: 38.7 µM
- TGI [26]: 46.7 µM
- GI50 [27]: 17.9 µM
- TGI [27]: 26.6 µM
- Activity [28]: <=32%
- GI50 [29]: 33.7 µM
- GI50 [30]: 56.8 µM
- GI50 [31]: 27.6 µM
- GI50 [32]: 34.9 µM
- GI50 [33]: 20.7 µM
- GI50 [34]: > 100 µM
- GI50 [35]: 34.9 µM
- GI50 [36]: 17.8 µM
- GI50 [37]: 6.63 µM
- GI50 [38]: 12.3 µM
- GI50 [39]: 23.3 µM
- GI50 [40]: 37.9 µM
- GI50 [41]: 93 µM
- GI50 [42]: 14.3 µM
- GI50 [43]: 28.6 µM
- GI50 [44]: > 100 µM
- GI50 [45]: 1.15 µM
- Activity [46]: <=32%

Compound: O=C(Nc1ccccc1)NS(=O)(=O)c1ccc(-n2nc3c(c2-c2cccs2)Cc2ccccc2-3)cc1
- GI50 [1]: 22.1 µM
- GI50 [2]: 25 µM
- GI50 [3]: 12 µM
- GI50 [4]: 13.4 µM
- GI50 [5]: 15.3 µM
- GI50 [6]: 32.2 µM
- GI50 [7]: 10.4 µM
- GI50 [8]: 85.3 µM
- GI50 [9]: 17.6 µM
- GI50 [10]: 60.8 µM
- GI50 [11]: 20.1 µM
- GI50 [12]: 21.4 µM
- GI50 [13]: 21.8 µM
- GI50 [14]: 15.8 µM
- GI50 [15]: 17.7 µM
- GI50 [16]: 15.6 µM
- GI50 [17]: 70.1 µM
- GI50 [18]: 50.2 µM
- GI50 [19]: 20.8 µM
- TGI [19]: 56.5 µM
- GI50 [20]: 19.5 µM
- TGI [20]: 98.1 µM
- GI50 [21]: 29.6 µM
- TGI [21]: 42.5 µM
- GI50 [22]: 31.2 µM
- TGI [22]: 98.3 µM
- GI50 [23]: 29.5 µM
- TGI [23]: 43 µM
- GI50 [24]: 44.4 µM
- TGI [24]: 80.7 µM
- GI50 [25]: 20.4 µM
- TGI [25]: 37.2 µM
- GI50 [26]: 18.2 µM
- TGI [26]: 74.4 µM
- GI50 [27]: 12.1 µM
- TGI [27]: 85.6 µM
- Activity [28]: <=32%
- GI50 [29]: 24.1 µM
- GI50 [30]: > 100 µM
- GI50 [31]: 25 µM
- GI50 [32]: 21.9 µM
- GI50 [33]: 22.9 µM
- GI50 [34]: 26 µM
- GI50 [35]: 8.08 µM
- GI50 [36]: 16.9 µM
- GI50 [37]: 15.3 µM
- GI50 [38]: 31.5 µM
- GI50 [39]: 44 µM
- GI50 [40]: 4.5 µM
- GI50 [41]: 18.9 µM
- GI50 [42]: 12.3 µM
- GI50 [43]: 26.1 µM
- GI50 [44]: 18.1 µM
- GI50 [45]: 13.6 µM
- Activity [46]: <=32%
